The subject of one experiment is K562 cells. The experiment in a line: In-vitro cell proliferation assay (MTT), K562 cells. The experiment is classed as cell-based. Particulars: for inhibition at 0.01 µM / inhibition at 0.1 µM: Homo sapiens. The procedure:
In-Vitro Cell Proliferation Assay
K562/U937 cells (2×10^4 per well) were incubated with the test compounds/vehicle in a total volume of 200 μL of media at 37° C. with 5% CO2. […] The cells were incubated overnight at 37° C. with 5% CO2. On Day 5 the optical density was measured at 570 nm with 630 nm as reference wavelength. The optical density in the vehicle treated wells was compared with that of the test compound treated wells.

The target of another experiment is T1, Abl (T315I) (human) (Homo sapiens, UniProt P00519, T315I).
T1 construct: purchased Millipore Pharma Services (contract assay, UK pharmacology laboratory)
The experiment in a line: Abl-T315I kinase inhibition (in vitro). The experiment is classed as biochemical. The procedure:
The kinase assays were performed by Millipore Pharma Services at their UK pharmacology laboratory.
[specific activity approx. 500 cpm/pmol, concentration as required). The reaction is initiated by the addition of the MgATP mix. After incubation for 40 minutes at room temperature, the reaction is stopped by the addition of 5 μL of a 3% phosphoric acid solution. 10 μL of the reaction is then spotted onto a P30 filtermat and washed three times for 5 minutes in 75 mM phosphoric acid and once in methanol prior to drying and scintillation counting.
Within each kinase assay, percent of control values were calculated for each test compound raw data point based on mean minimum (0%) and maximum (100%) controls (n=4 per control) for that kinase (sample−mean minimum/mean maximum−mean minimum×100%). Percent inhibition was calculated from these values (100−mean percent of control).

Each structure is given as a SMILES string.

For `Cc1ccc(C(=O)NNC(=O)c2c(Cl)cc(Cl)cc2Cl)cc1C#Cc1cnc2ccccc2c1` [I.1, 2,4,6-Trichloro-N′-[4-methyl-3-[2-(3-quinolyl)ethynyl]benzoyl]benzohydrazide], the inhibition at 0.01 µM in the experiment on K562 cells (10 nM) worked out at 101%. For the same compound, the inhibition at 0.1 µM in the experiment with K562 cells (100 nM) was determined as 105%.
`Cc1ccc(C(=O)NNC(=O)c2ccc(CN3CCN(C)CC3)c(C(F)(F)F)c2)cc1C#Cc1cnc2ccccc2c1` [I.3, 4-Methyl-N′-[4-[(4-methylpiperazin-1-yl)methyl]-3-(trifluoromethyl)benzoyl]-3-[2-(3-quinolyl)ethynyl]benzohydrazide]: the inhibition at 0.01 µM with K562 cells (10 nM) amounted to 14.6%. In the experiment with K562 cells (100 nM), the inhibition at 0.1 µM came out at 73.4%.
In the case of `Cc1ccc(C(=O)NNC(=O)c2c(Cl)cccc2Cl)cc1C#Cc1cnc2ccccc2c1` [I.5, N′-(2,6-Dichlorobenzoyl)-4-methy1-3-[2-(3-quinolyl)ethynyl]benzohydrazide], the “% Inhibition of Abl-T315I kinase” value at Abl (T315I) (human) (3 nM) is 30.0%; on Abl (T315I) (human) (30 nM), 83.0%. The entries for the “% Inhibition of cell proliferation in K562 cells” value (“% Inhibition … in K562 cells” below) with K562 cells (10 nM) and with K562 cells (100 nM) were 99.8% and 99.9%, respectively.
On to `Cc1cn(-c2cc(C(=O)NNC(=O)c3ccc(C)c(C#Cc4cnc5ccccc5c4)c3)cc(C(F)(F)F)c2)cn1` [I.7, 4-Methyl-N′-[3-(4-methylimidazol-1-yl)-5-(trifluoromethyl)benzoyl]-3-[2-(3-quinolyl)ethynyl]benzohydrazide], for which, in the experiment on K562 cells (10 nM), the inhibition at 0.01 µM was 12.6%. Further, the inhibition at 0.1 µM with K562 cells (100 nM) came to 43.1%.
The matching figures for `Cc1cc(C)c(C(=O)NNC(=O)c2ccc(C)c(C#Cc3cnc4ccccc4c3)c2)c(C)c1` [I.8, 2,4,6-Trimethyl-N′-[4-methyl-3-[2-(3-quinolyl)ethynyl]benzoyl]benzohydrazide]: 53.6% and 80.3%.
For `Cc1ccc(C(=O)NNC(=O)c2c(C)cccc2Br)cc1C#Cc1cnc2ccccc2c1` [I.11, N′-(2-Bromo-6-methylbenzoyl)-4-methyl-3-[2-(3-quinolyl)ethynyl]benzohydrazide], the inhibition at 0.01 µM with K562 cells (10 nM) turned out to be 78.9%. Further, the inhibition at 0.1 µM with K562 cells (100 nM) was found to be 79.9%.
The matching figures for `COc1cccc(C)c1C(=O)NNC(=O)c1ccc(C)c(C#Cc2cnc3ccccc3c2)c1` [I.13, N′-(2-Methoxy-6-methylbenzoyl)-4-methyl-3-[2-(3-quinolyl)ethynyl]benzohydrazide]: 52.2% and 73.5%.
For the compound `Cc1ccc(C(=O)NNC(=O)c2c(C)cccc2F)cc1C#Cc1cnc2ccccc2c1` [I.14, N′-(2-Fluoro-6-methylbenzoyl)-4-methyl-3-[2-(3-quinolyl)ethynyl]benzohydrazide], the inhibition at 0.003 µM against Abl (T315I) (human) (3 nM) stood at 1%. In addition, the inhibition at 0.03 µM on Abl (T315I) (human) (30 nM) is 60%. For the same compound, the inhibition at 0.01 µM in the experiment on K562 cells (10 nM) is 68.5%. The inhibition at 0.1 µM in the experiment with K562 cells (100 nM) came out at 71.7%.
For `Cc1ccc(C(=O)NNC(=O)c2c(Cl)cc(Cl)cc2Cl)cc1C#Cc1cnc2cnccn12` [I.15, 2,4,6-Trichloro-N′-[3-[2-(2-imidazo[1,2-a]pyrazin-3-yl)ethynyl]-4-methylbenzoyl]benzohydrazide], the “% Inhibition … in K562 cells” value in the experiment on K562 cells (10 nM) is reported as 82.8%; in the experiment with K562 cells (100 nM), 85.0%.
In the case of `Cc1ccc(C(=O)NNC(=O)c2c(C)cccc2Cl)cc1C#Cc1cnc2ccccn12` [I.19, N′-(2-Chloro-6-methylbenzoyl)-3-[2-(imidazo[1,2-a]pyridin-3-yl)ethynyl]-4-methylbenzohydrazide], the inhibition at 0.01 µM in the experiment on K562 cells (10 nM) is 60.2%. In addition, the inhibition at 0.1 µM with K562 cells (100 nM) amounted to 80.2%.
For the compound `Cc1cccc(Cl)c1C(=O)NNC(=O)c1ccc(F)c(C#Cc2cnc3ccccc3c2)c1` [I.21, N′-(2-Cchloro-6-methylbenzoyl)-4-fluoro-3-[2-(3-quinolyl)ethynyl]benzohydrazide], the “% Inhibition … in K562 cells” value with K562 cells (10 nM) came out at 40.9%; in the experiment on K562 cells (100 nM), 98.6%.
For the compound `Cc1ccc(C(=O)NNC(=O)c2c(F)cccc2I)cc1C#Cc1cnc2ccccc2c1` [I.23, N′-(2-Fluoro-6-iodobenzoyl)-4-methyl-3-[2-(3-quinolyl)ethynyl]benzohydrazide], the inhibition at 0.01 µM with K562 cells (10 nM) came to 68.1%. Besides, the inhibition at 0.1 µM in the experiment on K562 cells (100 nM) is 72.6%.
On to `Cc1ccc(C(=O)NNC(=O)c2c(Cl)cccc2C(F)(F)F)cc1C#Cc1cnc2ccccc2c1` [I.24, N′-[2-Chloro-6-(trifluoromethyl)benzoyl]-4-methyl-3-[2-(3-quinolyl)ethynyl]benzohydrazide], for which, in the experiment with K562 cells (10 nM), the inhibition at 0.01 µM came out at 71.1%. Further, in the experiment with K562 cells (100 nM), the inhibition at 0.1 µM turned out to be 71.3%.
As to `Cc1ccc(C(=O)NNC(=O)c2c(F)cccc2C(F)(F)F)cc1C#Cc1cnc2ccccc2c1` [I.25, N′-[2-Fluoro-6-(trifluoromethyl)benzoyl]-4-methyl-3-[2-(3-quinolyl)ethynyl]benzohydrazide], the inhibition at 0.003 µM at Abl (T315I) (human) (3 nM) stood at 26%. Also, the inhibition at 0.03 µM on Abl (T315I) (human) (30 nM) is 65%. For the same compound, in the experiment on K562 cells (10 nM), the inhibition at 0.01 µM was determined as 71.5%. Also, the inhibition at 0.1 µM in the experiment on K562 cells (100 nM) was 73%.
Turning to `Cc1ccc(C(=O)NNCc2cccnc2Cl)cc1C#Cc1cnc2ccccc2c1` [I.29, N′-(2-Chloronicotinyl)-4-methyl-3-[2-(3-quinolyl)ethynyl]benzohydrazide], the inhibition at 0.01 µM in the experiment on K562 cells (10 nM) was found to be 27.7%. In addition, the inhibition at 0.1 µM in the experiment with K562 cells (100 nM) amounted to 78.5%.
For `Cc1ccc(C(=O)NNC(=O)c2ccccc2C)cc1C#Cc1cnc2ccccc2c1` [I.30, N′-(2-Methylbenzoyl)-4-methyl-3-[2-(3-quinolyl)ethynyl]benzohydrazide], in that order: 49% and 85%.
For `CCc1cccc(Cl)c1C(=O)NNC(=O)c1ccc(C)c(C#Cc2cnc3ccccc3c2)c1` [I.31, N′-(2-Chloro-6-ethylbenzoyl)-4-methyl-3-[2-(3-quinolyl)ethynyl]benzohydrazide], in that order: 74.2% and 81.4%.
Take `Cc1ccc(C(=O)NNC(=O)c2c(Cl)cccc2C(C)C)cc1C#Cc1cnc2ccccc2c1` [I.32, N′-(2-Chloro-6-isopropylbenzoyl)-4-methyl-3-[2-(3-quinolyl)ethynyl]benzohydrazide]: the inhibition at 0.01 µM in the experiment with K562 cells (10 nM) turned out to be 50.6%. In addition, the inhibition at 0.1 µM in the experiment on K562 cells (100 nM) was determined as 81.9%.
As for `COc1cccc(Cl)c1C(=O)NNC(=O)c1ccc(C)c(C#Cc2cnc3ccccc3c2)c1` [I.34, N′-(2-Chloro-6-methoxybenzoyl)-4-methyl-3-[2-(3-quinolyl)ethynyl]benzohydrazide], the inhibition at 0.01 µM in the experiment on K562 cells (10 nM) was determined as 75.5%. Also, the inhibition at 0.1 µM in the experiment with K562 cells (100 nM) was 82.2%.
The matching figures for `Cc1ccc(C(=O)NNC(=O)c2c(C)cccc2[N+](=O)[O-])cc1C#Cc1cnc2ccccc2c1` [I.36, N′-(2-Methyl-6-nitrobenzoyl)-4-methyl-3-[2-(3-quinolyl)ethynyl]benzohydrazide]: 75.9% and 77.3%.
The matching figures for `Cc1ccc(C(=O)NNC(=O)c2c(Cl)cccc2I)cc1C#Cc1cnc2ccccc2c1` [I.39, N′-(2-Chloro-6-iodobenzoyl)-4-methyl-3-[2-(3-quinolyl)ethynyl]benzohydrazide]: 77.1% and 80.5%.
As for `Cc1ccc(C(=O)NNC(=O)c2ccccc2Cl)cc1C#Cc1cnc2ccccc2c1` [I.40, N′-(2-Chlorobenzoyl)-4-methyl-3-[2-(3-quinolyl)ethynyl]benzohydrazide], in the experiment on K562 cells (10 nM), the inhibition at 0.01 µM is 59.9%. Further, the inhibition at 0.1 µM in the experiment with K562 cells (100 nM) was 84.3%.
The matching figures for `Cc1ccc(C(=O)NNC(=O)c2c(Cl)cccc2Cl)cc1C#Cc1cnc2cccnn12` [I.41, N′-(2,6-Dichlorobenzoyl)-4-methyl-3-[(imidazo(1,2-b)pyridazin-3-yl)ethynyl]benzohydrazide]: 82.5% and 81.1%.
For `Cc1ccc2ncc(C#Cc3cc(C(=O)NNC(=O)c4c(C)cccc4Cl)ccc3C)cc2c1` [I.44, N′-(2-Chloro-6-methylbenzoyl)-4-methyl-3-[2-(6-methyl-3-quinolyl)ethynyl]benzohydrazide], in the experiment on K562 cells (10 nM), the inhibition at 0.01 µM is 77.7%. The inhibition at 0.1 µM in the experiment with K562 cells (100 nM) was 84.4%.
With `Cc1ccc(C(=O)N(C)NC(=O)c2c(C)cccc2Cl)cc1C#Cc1cnc2ccccc2c1` [I.45, N-Methyl-N′-(2-Chloro-6-methylbenzoyl)-4-methyl-3-[2-(3-quinolyl)ethynyl]benzohydrazide], the inhibition at 0.01 µM with K562 cells (10 nM) worked out at 10.2%. In the experiment on K562 cells (100 nM), the inhibition at 0.1 µM turned out to be 78.2%.
As for `Cc1ccc(C(=O)NNC(=O)c2c(C)cccc2C)cc1C#Cc1cnc2ccccc2c1` [I.46, N′-(2,6-Dimethylbenzoyl)-4-methyl-3-[2-(3-quinolyl)ethynyl]benzohydrazide], the inhibition at 0.01 µM in the experiment with K562 cells (10 nM) amounted to 77.9%. For the same compound, the inhibition at 0.1 µM with K562 cells (100 nM) came out at 83.9%.
As to `Cc1ccc(C(=O)NNC(=O)c2c(C)cccc2Cl)cc1C#Cc1cnc2ccc(Cl)cc2c1` [I.50, N′-(2-Chloro-6-methylbenzoyl)-4-methyl-3-[2-(6-chloro-3-quinolyl)ethynyl]benzohydrazide], the inhibition at 0.01 µM with K562 cells (10 nM) worked out at 69.6%. For the same compound, the inhibition at 0.1 µM in the experiment with K562 cells (100 nM) amounted to 75%.
As to `Cc1cccc(Cl)c1C(=O)NNC(=O)c1cccc(C#Cc2cnc3ccccc3c2)n1` [I.60, N′-(2-Chloro-6-methylbenzoyl)-6-[2-(3-quinolyl)ethynyl]pyridine-2-carboxylic acid hydrazide], the inhibition at 0.01 µM in the experiment with K562 cells (10 nM) is 8.6%. In addition, the inhibition at 0.1 µM with K562 cells (100 nM) was determined as 8.5%.

As a reminder, the inhibition is the change of the read-out against control, counted positive when it falls.

Values taken from patent US9024021B2, “Diarylacetylene hydrazide containing tyrosine kinase inhibitors” (Sun Pharma Advanced Research Company Ltd., priority 2011, dated 2015).
